One experiment concerns the target T1, XIAP BIR2-3 (Homo sapiens, UniProt P98170, C202A/C213G).
T1 construct: His-BIR2-3 (125-356, C202A/C213G, XIAP)
The experiment in a line: XIAP-BIR2-3 dimeric SMAC Peptide Homogeneous Time Resolved Fluorescence (HTRF) Assay. It is filed as binding. As to conditions: 0.5 nM N-His-BIR2-3 (125-356, C202A/C213G, XIAP), 20 nM fluorescein labeled dimeric SMAC peptide; HTRF signal; read-out: XIAP BIR2-3 IC50. As to the method: B. […] Assays were performed in black, flat-bottom, 384-well plates. […] Compounds were dissolved at 3 mM in dimethylsulfoxide (DMSO) and evaluated at eleven serially diluted concentrations. IC50 and Ki values were derived by non-linear regression analysis.
(In general: TR-FRET usually uses a lanthanide donor and a delayed reading to cut background.)

For another experiment, the target named is T2, XIAP BIR3 (Homo sapiens, UniProt P98170).
T2 construct: His-BIR3 (241-356, XIAP)
T2 sequence (P98170 241-356): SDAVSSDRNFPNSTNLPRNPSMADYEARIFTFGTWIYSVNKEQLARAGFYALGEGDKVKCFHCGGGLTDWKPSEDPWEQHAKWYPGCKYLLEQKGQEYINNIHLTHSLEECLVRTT
Description: XIAP-BIR3/SMAC Homogeneous Time Resolved Fluorescence (HTRF) Assay. It is filed as binding. As to conditions: 1 nM N-His-BIR3 (241-356, XIAP), 5 nM fluorescein labeled SMAC peptide; HTRF signal; read-out: XIAP BIR3 IC50. The essentials: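 Competition HTRF between XIAP-BIR3 and SMAC; reaction 60 min at room temperature, then anti-6×His-terbium Fab detection for a further 30 min.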

T1 sequence (P98170 125-356 C202A/C213G): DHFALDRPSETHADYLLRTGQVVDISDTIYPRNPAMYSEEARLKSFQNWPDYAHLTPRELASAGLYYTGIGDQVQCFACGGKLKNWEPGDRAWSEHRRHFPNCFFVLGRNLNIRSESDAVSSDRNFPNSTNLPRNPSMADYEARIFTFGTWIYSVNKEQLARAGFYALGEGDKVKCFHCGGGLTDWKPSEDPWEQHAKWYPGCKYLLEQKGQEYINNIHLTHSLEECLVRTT

The term IC50 denotes the point on the concentration scale where inhibition reaches its midpoint. As for `CN[C@@H](C)C(=O)N[C@H](C(=O)N1C[C@@H](c2ccc3c(c2)CN(C(=O)[C@@H](NC(=O)[C@H](C)NC)C(C)(C)C)[C@H](C(=O)N[C@@H]2CCCc4ccccc42)C3)C[C@H]1C(=O)N[C@@H](Cc1ccccc1)C(=O)Nc1ccc(-n2cncn2)cc1)C(C)(C)C` [Example 65, (S)-7-((3R,5S)-5-(((S)-1-((4-(1H-1,2,4-Triazol-1-yl)phenyl)amino)-1-oxo-3-phenylpropan-2-yl)carbamoyl)-1-((S)-3,3-dimethyl-2-((S)-2-(methylamino)propanamido)butanoyl)pyrrolidin-3-yl)-2-((S)-3,3-dimethyl-2-((S)-2-(methylamino)propanamido)butanoyl)-N-((R)-1,2,3,4-tetrahydronaphthalen-1-yl)-1,2,3,4-tetrahydroisoquinoline-3-carboxamide], the IC50 amounted to 1.6 nM on XIAP BIR2-3 and 5.4 nM on XIAP BIR3.

`CN[C@@H](C)C(=O)N[C@H](C(=O)N1C[C@@H](c2ccc3c(c2)CN(C(=O)[C@@H](NC(=O)[C@H](C)NC)C(C)(C)C)[C@H](C(=O)N[C@@H]2CCOc4ccccc42)C3)C[C@H]1C(=O)N[C@@H]1CCCc2ccccc21)C(C)(C)C` [Example 33, (S)—N—((R)—Chroman-4-yl)-2-((S)-3,3-dimethyl-2-((S)-2-(methylamino)propanamido)butanoyl)-7-((3R,5S)-1-((S)-3,3-dimethyl-2-((S)-2-(methylamino)propanamido)butanoyl)-5-(((R)-1,2,3,4-tetrahydronaphthalen-1-yl)carbamoyl)pyrrolidin-3-yl)-1,2,3,4-tetrahydroisoquinoline-3-carboxamide]: the IC50 at XIAP BIR2-3 stood at 1.7 nM; on XIAP BIR3, 1.8 nM.

On to `CN[C@@H](C)C(=O)N[C@H](C(=O)N1C[C@@H](c2ccc3c(c2)CN(C(=O)[C@@H](NC(=O)[C@H](C)NC)C(C)(C)C)[C@H](C(=O)N[C@@H]2CCCc4ccccc42)C3)C[C@H]1C(=O)N[C@@H](Cc1ccccc1)C(N)=O)C(C)(C)C` [Example 46, (S)-7-((3R,5S)-5-(((S)-1-Amino-1-oxo-3-phenylpropan-2-yl)carbamoyl)-1-((S)-3,3-dimethyl-2-((S)-2-(methylamino)propanamido)butanoyl)pyrrolidin-3-yl)-2-((S)-3,3-dimethyl-2-((S)-2-(methylamino)propanamido)butanoyl)-N—((R)-1,2,3,4-tetrahydronaphthalen-1-yl)-1,2,3,4-tetrahydroisoquinoline-3-carboxamide], for which the IC50 on XIAP BIR2-3 was 1.6 nM; at XIAP BIR3, 10.2 nM.

Values taken from patent publication US8889712B2, “IAP antagonists” (Bristol-Myers Squibb Company, priority 2012, dated 2014).
